Among the data in patent US10047086B2, “Imidazopyridines and imidazopyrazines as LSD1 inhibitors” (Incyte Corporation, priority 2014, dated 2018) are IC50 values, retold here.

The test has as its target LSD-1 enzyme (Homo sapiens (Human), UniProt O60341). The experiment in a line: LANCE LSD1/KDM1A demethylase assay (LSD1 histone demethylase biochemical assay). The conditions noted are these: 1 nM LSD-1 enzyme, 1 hour preincubation at 25° C., 0.4 μM Biotin-labeled Histone H3 peptide substrate. Background: In TR-FRET formats the signal depends on donor and acceptor labels being close together.
For orientation: IC50 means the midpoint of a concentration-inhibition curve. A lower IC50 goes with inhibition by little substance. The molecule `Cc1ncc(-c2c(-c3ccc(C#N)cc3)cc(OC[C@@H]3CCCN(C)C3)c3cncn23)cc1F` [Example 127, 4-(5-(5-fluoro-6-methylpyridin-3-yl)-8-{[(3R)-1-methylpiperidin-3-yl]methoxy}imidazo[1,5-a]pyridin-6-yl)benzonitrile] registered an IC50 of no more than 50 nM.

As to `CCN1CCC[C@@H](COc2cc(-c3ccc(C#N)cc3)c(-c3cc(C)c(CO)c(F)c3)n3cncc23)C1` [Example 128, 4-{8-{[(3R)-1-ethylpiperidin-3-yl]methoxy}-5-[3-fluoro-4-(hydroxymethyl)-5-methylphenyl]imidazo[1,5-a]pyridin-6-yl}benzonitrile], the IC50 is no more than 50 nM.

Molecule `COCCN1CCC[C@@H](COc2cc(-c3ccc(C#N)cc3)c(-c3cc(C)c(CO)c(F)c3)n3cncc23)C1` [Example 129, 4-(5-[3-fluoro-4-(hydroxymethyl)-5-methylphenyl]-8-{[(3R)-1-(2-methoxyethyl)piperidin-3-yl]methoxy}imidazo[1,5-a]pyridin-6-yl)benzonitrile] came in with an IC50 of no more than 50 nM.

The molecule `COCCN1CCC[C@@H](COc2cc(-c3ccc(C#N)cc3)c(-c3cnc(C)c(C)c3)n3cncc23)C1` [Example 130, 4-(5-(5,6-dimethylpyridin-3-yl)-8-{[(3R)-1-(2-methoxyethyl)piperidin-3-yl]methoxy}imidazo[1,5-a]pyridin-6-yl)benzonitrile] yielded an IC50 of no more than 50 nM.

`CCN1CCC[C@@H](COc2cc(-c3ccc(C#N)cc3)c(-c3cnc(C)c(C)c3)n3cncc23)C1` [Example 131, 4-(5-(5,6-dimethylpyridin-3-yl)-8-{[(3R)-1-ethylpiperidin-3-yl]methoxy}imidazo[1,5-a]pyridin-6-yl)benzonitrile] returned an IC50 of no more than 50 nM.

In the case of `CN1CCC[C@@H](COc2cc(-c3ccc(C#N)cc3)c(-c3cnn(C4CCC4)c3)n3cncc23)C1` [Example 134, 4-(5-(1-cyclobutyl-1H-pyrazol-4-yl)-8-{[(3R)-1-methylpiperidin-3-yl]methoxy}imidazo[1,5-a]pyridin-6-yl)benzonitrile], the IC50 is no more than 50 nM.

In the case of `CN1C(=O)CCc2cc(-c3c(-c4ccc(C#N)cc4)nc(N4CCC(N(C)C)CC4)c4cncn34)ccc21` [Example 137, 4-[8-[4-(dimethylamino)piperidin-1-yl]-5-(1-methyl-2-oxo-1,2,3,4-tetrahydroquinolin-6-yl)imidazo[1,5-a]pyrazin-6-yl]benzonitrile], the IC50 is no more than 50 nM.

With `CN(C)C1CCN(c2nc(-c3ccc(C#N)cc3)c(-c3cc(F)c4c(c3)n(C)c(=O)n4C)n3cncc23)CC1` [Example 138, 4-(8-(4-(dimethylamino)piperidin-1-yl)-5-(7-fluoro-1,3-dimethyl-2-oxo-2,3-dihydro-1H-benzo[d]imidazol-5-yl)imidazo[1,5-a]pyrazin-6-yl)benzonitrile], the IC50 is no more than 50 nM.

`CN(C)C1CCN(c2nc(-c3ccc(C#N)cc3)c(-c3cnn(C4CCC4)c3)n3cncc23)CC1` [Example 139, 4-{5-(1-cyclobutyl-1H-pyrazol-4-yl)-8-[4-(dimethylamino)piperidin-1-yl]imidazo[1,5-a]pyrazin-6-yl}benzonitrile] gave an IC50 of no more than 50 nM.

`Cc1ncc(-c2c(-c3ccc(C#N)cc3)nc(N3CCC(N(C)C)CC3)c3cncn23)cc1CO` [Example 142, 4-{8-[4-(dimethylamino)piperidin-1-yl]-5-[5-(hydroxymethyl)-6-methylpyridin-3-yl]imidazo[1,5-a]pyrazin-6-yl}benzonitrile] yielded an IC50 of no more than 50 nM.

As for `CN(C)C1CCN(c2nc(-c3ccc(C#N)cc3)c(-c3ccc4c(c3)nc(C(F)F)n4C)n3cncc23)CC1` [Example 143, 4-{5-[2-(difluoromethyl)-1-methyl-1H-benzimidazol-5-yl]-8-[4-(dimethylamino)piperidin-1-yl]imidazo[1,5-a]pyrazin-6-yl}benzonitrile], the IC50 is no more than 50 nM.

`CN(C)C1CCN(c2nc(-c3ccc(C#N)cc3)c(-c3cnc4ccccc4c3)n3cncc23)CC1` [Example 144, 4-{8-[4-(dimethylamino)piperidin-1-yl]-5-quinolin-3-ylimidazo[1,5-a]pyrazin-6-yl}benzonitrile] gave an IC50 of no more than 50 nM.
